{"source": "patent US20160257697A1", "about": "“THIOPHENE-SUBSTITUTED TETRACYCLIC COMPOUNDS AND METHODS OFUSE THEREOF FOR THE TREATMENT OF VIRAL DISEASES” (priority 2013, published 2016)", "experiment_in_all_cases": "microbe, parasite or virus in culture", "type_in_all_cases": "cell-based, Hepatitis C virus (HCV)", "key": {"[1]": {"system": "HCV replicon 1AY93H", "conditions": "read-out: 1A Y93H IC50, Replicon Assay A", "method_in_brief": "(§1)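 Replicon cells incubated with compound for 3 days in medium with 5% FBS and 0.5% DMSO final. Replicon RNA measured in lysates by multiplex real-time RT-PCR (Neo set) against cyclophilin control, quantified from standard curves of Ct versus log ng replicon total RNA.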"}, "[2]": {"system": "HCV replicon 1A", "conditions": "Replicon Assay A", "method_in_brief": "as §1"}, "[3]": {"system": "HCV replicon 2B", "conditions": "read-out: 2B IC50, Replicon Assay A", "method_in_brief": "as §1"}, "[4]": {"system": "HCV replicon 1AQ30D", "conditions": "Replicon Assay B"}, "[5]": {"system": "HCV replicon 1B", "conditions": "Replicon Assay B"}, "[6]": {"conditions": "read-out: 1A Q30D IC50, replicon 1AQ30D"}, "[7]": {"conditions": "Hepatitis C virus, read-out: 1A Q30D IC50, HCV replicon 1A Q30D"}, "[8]": {"conditions": "Hepatitis C virus, HCV replicon 1B"}, "[9]": {"conditions": "Hepatitis C virus, read-out: 1A Q30D IC50 (nM), replicon 1AQ30D"}}, "note": "Read-outs that look alike come from different tables or passages of the source."}
{"smiles": "COC(=O)N[C@H](C(=O)N1CCC[C@H]1c1ncc(-c2cc(F)c3c(c2)OC(c2cc(C4CC4)cs2)n2c-3cc3cc(-c4cnc([C@@H]5CCCN5C(=O)[C@@H](NC(=O)OC)C(C)C)[nH]4)ccc32)[nH]1)C(C)C", "note": "(single isomer, unassigned) [Compound 23]", "values": [{"measurement": "IC50", "setting": "[1]; replicon 1AY93H", "result": 240, "unit": "pM"}, {"measurement": "IC50", "setting": "[2]; Hepatitis C virus, replicon 1A", "result": 3.2, "unit": "pM"}, {"measurement": "IC50", "setting": "[3]; replicon 2B", "result": 780, "unit": "pM"}, {"measurement": "IC50", "setting": "[4]; [6]", "result": 1.75, "unit": "nM"}, {"measurement": "IC50", "setting": "[5]; Hepatitis C virus, replicon 1B", "result": 3.9, "unit": "pM"}]}
{"smiles": "COC(=O)N[C@H](C(=O)N1CCC[C@H]1c1ncc(-c2cc(F)c3c(c2)OC(c2ccc(C(F)(F)F)s2)n2c-3cc3cc(-c4cnc([C@@H]5CCCN5C(=O)[C@@H](NC(=O)OC)C5CCOCC5)[nH]4)ccc32)[nH]1)C(C)C", "note": "(single isomer, unassigned) [Compound 654]", "values": [{"measurement": "IC50", "setting": "[1]; HCV replicon 1A Y93H", "result": 9.5, "unit": "pM"}, {"measurement": "IC50", "setting": "[2]; Hepatitis C virus, HCV replicon 1A", "result": 1.1, "unit": "pM"}, {"measurement": "IC50", "setting": "[3]; HCV replicon 2B", "result": 6.1, "unit": "pM"}, {"measurement": "IC50", "setting": "[4]; [7]", "result": 0.0839, "unit": "nM"}, {"measurement": "IC50", "setting": "[5]; [8]", "result": 2, "unit": "pM"}]}
{"smiles": "COC(=O)N[C@H](C(=O)N1CCC[C@H]1c1ncc(-c2cc(F)c3c(c2)OC(c2ccc(C(C)(C)O)s2)n2c-3cc3cc(-c4cnc([C@@H]5CCCN5C(=O)[C@@H](NC(=O)OC)C(C)C)[nH]4)ccc32)[nH]1)C(C)C", "note": "(single isomer, unassigned) [Compound 84]", "values": [{"measurement": "IC50", "setting": "[1]; replicon 1AY93H", "result": 12, "unit": "pM"}, {"measurement": "IC50", "setting": "[2]; replicon 1A", "result": 3.3, "unit": "pM"}, {"measurement": "IC50", "setting": "[3]; replicon 2B", "result": 12, "unit": "pM"}, {"measurement": "IC50", "setting": "[4]; [9]", "result": 0.5, "unit": "nM"}, {"measurement": "IC50", "setting": "[5]; replicon 1B", "result": 2.5, "unit": "pM"}]}
{"smiles": "COC(=O)NC(C(=O)N1[C@@H]2C[C@@H]2C[C@H]1c1ncc(-c2ccc3c(c2)cc2n3C(c3ccc(C4CC4)s3)Oc3cc(-c4cnc([C@@H]5CCCN5C(=O)[C@@H](NC(=O)OC)C(C)C)[nH]4)cc(F)c3-2)[nH]1)C1C[C@@H](C)O[C@@H](C)C1", "note": "(single isomer, unassigned) [Compound 271]", "values": [{"measurement": "IC50", "setting": "[1]; replicon 1AY93H", "result": 4, "unit": "pM"}, {"measurement": "IC50", "setting": "[2]; replicon 1A", "result": 3.4, "unit": "pM"}, {"measurement": "IC50", "setting": "[3]; replicon 2B", "result": 13, "unit": "pM"}, {"measurement": "IC50", "setting": "[4]; [6]", "result": 0.036, "unit": "nM"}, {"measurement": "IC50", "setting": "[5]; Hepatitis C virus, replicon 1B", "result": 2.2, "unit": "pM"}]}
{"smiles": "CCc1ccc(C2Oc3cc(-c4cnc([C@@H]5CCCN5C(=O)[C@@H](NC(=O)OC)C(C)C)[nH]4)cc(C)c3-c3cc4cc(-c5cnc([C@@H]6CCCN6C(=O)C(NC(=O)OC)C6C[C@@H](C)O[C@H](C)C6)[nH]5)ccc4n32)s1", "note": "(single isomer, unassigned) [Compound 545]", "values": [{"measurement": "IC50", "setting": "[1]; HCV replicon 1A Y93H", "result": 24, "unit": "pM"}, {"measurement": "IC50", "setting": "[2]; HCV replicon 1A", "result": 3.55, "unit": "pM"}, {"measurement": "IC50", "setting": "[3]; HCV replicon 2B", "result": 6.45, "unit": "pM"}, {"measurement": "IC50", "setting": "[4]; [7]", "result": 0.11, "unit": "nM"}, {"measurement": "IC50", "setting": "[5]; [8]", "result": 5.98, "unit": "pM"}]}
{"smiles": "COC(=O)NC(C(=O)N1CCC[C@H]1c1ncc(-c2ccc3c(c2)cc2n3C(c3ccc(C4CC4)s3)Oc3cc(-c4cnc([C@@H]5CCCN5C(=O)[C@@H](NC(=O)OC)C(C)C)[nH]4)cc(F)c3-2)[nH]1)C1CCO[C@H](C)C1", "note": "(single isomer, unassigned) [Compound 136]", "values": [{"measurement": "IC50", "setting": "[1]; replicon 1AY93H", "result": 200, "unit": "pM"}, {"measurement": "IC50", "setting": "[2]; replicon 1A", "result": 1.8, "unit": "pM"}, {"measurement": "IC50", "setting": "[3]; replicon 2B", "result": 230, "unit": "pM"}, {"measurement": "IC50", "setting": "[4]; [6]", "result": 0.9, "unit": "nM"}, {"measurement": "IC50", "setting": "[5]; replicon 1B", "result": 1.7, "unit": "pM"}]}
{"smiles": "COC(=O)NC(C(=O)N1CCC[C@H]1c1ncc(-c2ccc3c(c2)cc2n3C(c3ccc(C4CC4)s3)Oc3cc(-c4cnc([C@@H]5CCCN5C(=O)[C@@H](NC(=O)OC)C(C)C)[nH]4)cc(F)c3-2)[nH]1)C1CN(C(=O)C2CC2)C1", "note": "(single isomer, unassigned) [Compound 267]", "values": [{"measurement": "IC50", "setting": "[1]; replicon 1AY93H", "result": 13, "unit": "pM"}, {"measurement": "IC50", "setting": "[2]; replicon 1A", "result": 3.5, "unit": "pM"}, {"measurement": "IC50", "setting": "[3]; replicon 2B", "result": 12, "unit": "pM"}, {"measurement": "IC50", "setting": "[4]; [9]", "result": 0.08, "unit": "nM"}, {"measurement": "IC50", "setting": "[5]; Hepatitis C virus, replicon 1B", "result": 3.9, "unit": "pM"}]}
{"smiles": "COC(=O)N[C@H](C(=O)N1CCC[C@H]1c1ncc(-c2ccc3c(c2)OC(c2cc4sccc4s2)n2c-3cc3cc(-c4c[nH]c([C@@H]5C[C@H]6C[C@H]6N5C(=O)[C@@H](NC(=O)OC)C(C)C)n4)ccc32)[nH]1)C(C)C", "note": "(single isomer, unassigned) [Compound 716]", "values": [{"measurement": "IC50", "setting": "[1]; HCV replicon 1A Y93H", "result": 1280, "unit": "pM"}, {"measurement": "IC50", "setting": "[2]; HCV replicon 1A", "result": 3.8, "unit": "pM"}, {"measurement": "IC50", "setting": "[3]; HCV replicon 2B", "result": 2320, "unit": "pM"}, {"measurement": "IC50", "setting": "[4]; [7]", "result": 28, "unit": "nM"}, {"measurement": "IC50", "setting": "[5]; [8]", "result": 4, "unit": "pM"}]}
{"smiles": "COC(=O)NC(C(=O)N1CCC[C@H]1c1ncc(-c2ccc3c(c2)cc2n3C(c3ccc(CC4CC4)s3)Oc3cc(-c4cnc([C@@H]5CCCN5C(=O)[C@@H](NC(=O)OC)C(C)C)[nH]4)cc(F)c3-2)[nH]1)C1CCO[C@H](C)C1", "note": "(some centres unmarked) [Compound 368]", "values": [{"measurement": "IC50", "setting": "[1]; replicon 1AY93H", "result": 4.7, "unit": "pM"}, {"measurement": "IC50", "setting": "[2]; replicon 1A", "result": 2.6, "unit": "pM"}, {"measurement": "IC50", "setting": "[3]; replicon 2B", "result": 2.8, "unit": "pM"}, {"measurement": "IC50", "setting": "[4]; [6]", "result": 0.0304, "unit": "nM"}, {"measurement": "IC50", "setting": "[5]; replicon 1B", "result": 3.1, "unit": "pM"}]}
{"smiles": "COC(=O)NC(C(=O)N1CCC[C@H]1c1ncc(-c2ccc3c(c2)cc2n3C(c3cc4nccnc4s3)Oc3cc(-c4cnc([C@@H]5CCCN5C(=O)[C@@H](NC(=O)OC)C(C)C)[nH]4)cc(F)c3-2)[nH]1)C1C[C@@H](C)O[C@@H](C)C1", "note": "(single isomer, unassigned) [Compound 372]", "values": [{"measurement": "IC50", "setting": "[1]; replicon 1AY93H", "result": 5.1, "unit": "pM"}, {"measurement": "IC50", "setting": "[2]; replicon 1A", "result": 2.2, "unit": "pM"}, {"measurement": "IC50", "setting": "[3]; replicon 2B", "result": 6.4, "unit": "pM"}, {"measurement": "IC50", "setting": "[4]; [9]", "result": 0.0964, "unit": "nM"}, {"measurement": "IC50", "setting": "[5]; Hepatitis C virus, replicon 1B", "result": 3.2, "unit": "pM"}]}
